ChEMBL document CHEMBL3244298, “Adamantylthiourea derivatives as antiviral agents” (J Med Chem, 1979)
Active and inactive are the calls of the source. The rule behind the calls is not given here.

How the values were obtained:
[1] = test system: unidentified influenza virus; test: Antiviral activity against Influenza virus A2/Asian/J305 infected in ip dosed mouse assessed as concentration required to cause survival at 21 days; assay type: functional; conditions: 504 h, read-out: PD50
[2] = test system: unidentified influenza virus; test: Antiviral activity against Influenza virus A2/Asian/J305 infected in mouse assessed as survival at 200 mg/kg, ip administered two doses at 24 hrs post viral infection followed by single dose for subsequent days relative to control; assay type: functional; conditions: route intraperitoneal
[3] = test system: unidentified influenza virus; test: Antiviral activity against Influenza virus A2/Asian/J305 infected in mouse assessed as survival at 200 mg/kg, ip administered two doses at 48 hrs post viral infection followed by single dose for subsequent days relative to control; assay type: functional; conditions: route intraperitoneal
[4] = test system: unidentified influenza virus; test: Antiviral activity against Influenza virus A2/Asian/J305 infected in po dosed mouse assessed as concentration required to cause survival at 21 days; assay type: functional; conditions: 504 h, read-out: PD50
Semliki Forest virus = test: Antiviral activity against Semliki forest virus infected in ip dosed mouse assessed as protection against viral infection; assay type: functional, organism-based
[5] = test system: unidentified influenza virus; test: Antiviral activity against Influenza virus A2/Asian/J305 infected in rhesus monkey kidney cells assessed as concentration required to reduce viral titer by >= 2 logarithms after 4 days by tube dilution method; assay type: functional
Enterovirus = test: Antiviral activity against Rhinovirus 42 infected in human WI38 cells assessed as growth inhibition after 7 days by tube dilution method; assay type: functional, organism-based; conditions: WI-38
[6] = Acute toxicity in po dosed mouse measured for 24 hrs; assay type: organism-based; conditions: in vivo
Herpesviridae sp. = test: Antiviral activity against Herpes simplex virus infected in ip dosed mouse assessed as protection against viral infection; assay type: functional, organism-based
Influenza B virus = test: Antiviral activity against Influenza B virus (B/Lee/40) infected in rhesus monkey kidney cells assessed as growth inhibition after 4 days by tube dilution method; assay type: functional, organism-based; conditions: B/Lee/1940
[7] = test system: unidentified influenza virus; test: Antiviral activity against Influenza virus A2/Asian/J305 infected in mouse assessed as survival at 200 mg/kg, ip administered single dose at 5 mins post viral infection followed by 2 doses per day for next 3 days relative to control; assay type: functional; conditions: route intraperitoneal
Respirovirus muris = test: Antiviral activity against Sendai virus infected in ip dosed mouse assessed as protection against viral infection; assay type: functional, organism-based
Mus musculus [8] = test: Toxicity in mouse assessed as tremors at > 600 mg/kg, ip measured for 24 hrs; assay type: organism-based; set-up: dose 600 mg/kg, route intraperitoneal; conditions: in vivo
Mus musculus [9] = test: Toxicity in mouse assessed as ataxia at > 600 mg/kg, ip measured for 24 hrs; assay type: organism-based; set-up: dose 600 mg/kg, route intraperitoneal; conditions: in vivo
[10] = test system: unidentified influenza virus; test: Antiviral activity against Influenza virus A2/Asian/J305 infected in mouse assessed as survival at 200 mg/kg, ip administered 3 doses on day of viral infection followed by 2 doses on next day and single dose per day for next 2 days relative to control; assay type: functional; conditions: 48 h, route intraperitoneal
Mus musculus [11] = test: Toxicity in mouse assessed as CNS related side effects up to 1000 mg/kg, po measured for 24 hrs; assay type: organism-based, Central nervous system; set-up: dose 1000 mg/kg, route oral; conditions: in vivo
[12] = Acute toxicity in ip dosed mouse measured for 24 hrs; assay type: organism-based; conditions: in vivo
[13] = test system: unidentified influenza virus; test: Antiviral activity against Influenza virus A2/Asian/J305 infected in mouse assessed as survival at 100 mg/kg, ip administered single dose at 5 mins post viral infection followed by 2 doses per day for next 3 days relative to control; assay type: functional; conditions: route intraperitoneal
[14] = test system: unidentified influenza virus; test: Antiviral activity against Influenza virus A2/Asian/J305 infected in mouse assessed as survival at 50 mg/kg, ip administered 3 doses on day of viral infection followed by 2 doses on next day and single dose per day for next 2 days relative to control; assay type: functional; conditions: 48 h, route intraperitoneal
[15] = test system: unidentified influenza virus; test: Antiviral activity against Influenza virus A2/Asian/J305 infected in mouse assessed as survival at 100 mg/kg, ip administered two doses at 48 hrs post viral infection followed by single dose for subsequent days relative to control; assay type: functional; conditions: route intraperitoneal
Mus musculus [16] = test: Toxicity in mouse assessed as CNS related side effects at 100 mg/kg, ip and 300 mg/kg, po measured for 24 hrs; assay type: organism-based, Central nervous system; conditions: in vivo
[17] = test system: unidentified influenza virus; test: Antiviral activity against Influenza virus A2/Asian/J305 infected in mouse assessed as survival at 100 mg/kg, ip administered two doses at 24 hrs post viral infection followed by single dose for subsequent days relative to control; assay type: functional; conditions: route intraperitoneal

CC(=O)Nc1ccc(S(=O)(=O)NC(=S)NC23CC4CC(CC(C4)C2)C3)cc1
ED50 [1]: > 200 mg/kg

NC(=O)NC(=S)NC12CC3CC(CC(C3)C1)C2
ED50 [1]: > 400 mg/kg

O=C(NC(=S)NC12CC3CC(CC(C3)C1)C2)Oc1ccccc1
ED50 [1]: > 400 mg/kg

Nc1ccc(S(=O)(=O)NC(=S)NC23CC4CC(CC(C4)C2)C3)cc1
survival at 200 mg/kg [2]: 28%
survival at 200 mg/kg [3]: 0%
ED50 [4]: 35 mg/kg
Activity (Semliki Forest virus): inactive
Activity [5]: 12.5 µg/mL
growth inhibition (GI) (Enterovirus): inactive
LD50 at 24 h [6]: > 1000 mg/kg
Activity (Herpesviridae sp.): inactive
growth inhibition (GI) (Influenza B virus): inactive
survival at 200 mg/kg [7]: 36%
Activity (Respirovirus muris): inactive
Activity (Mus musculus [8]): Toxic
Activity (Mus musculus [9]): Toxic
ED50 [1]: 16 mg/kg
survival at 200 mg/kg [10]: 77%
Activity (Mus musculus [11]): Non-toxic
LD50 at 24 h [12]: 775 mg/kg

CCOC(=O)/N=C(/NC12CC3CC(CC(C3)C1)C2)SC
ED50 [1]: 158 mg/kg

NC(=S)NC12CC3CC(CC(C3)C1)C2
ED50 [1]: > 200 mg/kg

CCOC(=O)NC(=S)NC12CC3CC(CC(C3)C1)C2
ED50 [1]: > 400 mg/kg

NC12CC3CC(CC(C3)C1)C2 [AMANTADINE]
ED50 [4]: 4 mg/kg
Activity (Semliki Forest virus): inactive
Activity [5]: 0.05 µg/mL
growth inhibition (GI) (Enterovirus): inactive
survival at 100 mg/kg [13]: 67%
Activity (Herpesviridae sp.): inactive
growth inhibition (GI) (Influenza B virus): inactive
Activity (Respirovirus muris): inactive
survival at 50 mg/kg [14]: 72%
ED50 [1]: 6 mg/kg
survival at 100 mg/kg [15]: 0%
Activity (Mus musculus [16]): Toxic
survival at 100 mg/kg [17]: 77%

O=C1CSC(NC23CC4CC(CC(C4)C2)C3)=N1
ED50 [1]: > 200 mg/kg

Cc1ccc(S(=O)(=O)NC(=S)NC23CC4CC(CC(C4)C2)C3)cc1
ED50 [1]: > 200 mg/kg
